The values that follow come from PubChem BioAssay AID651897 (Broad Institute, 2012).

Each structure is given as a SMILES string.

The target of this assay is cruzain (cruzipain), Trypanosoma cruzi. Nature of the assay: inhibition of T. cruzi cysteine protease cruzain – biochemical, dry powder, dose response (AID 651897). Particulars: purified recombinant cruzain, Z-Phe-Arg-AMC fluorescence.

The IC50 is the concentration at which inhibition is half-maximal. Regarding `C[C@H]1CN([C@@H](C)CO)C(=O)c2cccc(NC(=O)c3ccncc3)c2O[C@@H]1CN(C)Cc1ccc(Oc2ccccc2)cc1`, the IC50 is 13.2 µM.
